# Activity calls are given as the source filed them. No rule for the calls is given here.
# Molecular target: Bcl-2-related protein A1 (Mus musculus) (UniProt Q07440)
# Assay: off-target activity on mouse Bfl-1 – biochemical, set 3, counter-screen for UBC13 polyubiquitination inhibitor project, SAR follow-up (AID 602206)
# Conditions: Bfl-1 / peptide binding counterscreen, TR-FRET
# Sequence of Bcl-2-related protein A1 (Mus musculus) (Q07440 whole entry, looked up): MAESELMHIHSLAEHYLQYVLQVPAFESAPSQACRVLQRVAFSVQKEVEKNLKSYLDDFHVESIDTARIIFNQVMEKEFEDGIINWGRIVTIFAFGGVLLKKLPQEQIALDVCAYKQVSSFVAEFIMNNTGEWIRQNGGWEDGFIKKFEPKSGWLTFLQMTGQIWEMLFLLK
row,SMILES,IC50
1,Cc1ccc(NC(=O)C2CCN(c3ncnc4c3nc3n4CCCCC3)CC2)c(Cl)c1,> 100 µM (inactive)
2,Cc1ccc(NC(=O)C2CCN(c3ncnc4c3nc3n4CCCCC3)CC2)cc1F,> 100 µM (inactive)
3,O=C(Nc1cccc(Cl)c1)C1CCN(c2ncnc3c2nc2n3CCCCC2)CC1,> 100 µM (inactive)
4,Cc1ccc(Cl)cc1N1CCN(c2ncnc3c2nc2n3CCCC2)CC1,> 100 µM (inactive)
5,c1ccc(CN2CCN(c3ncnc4c3nc3n4CCCC3)CC2)cc1,> 100 µM (inactive)
6,O=C(Nc1cc(F)ccc1F)C1CCN(c2ncnc3c2nc2n3CCCCC2)CC1,> 100 µM (inactive)
7,COc1ccc(Cl)cc1NC(=O)C1CCN(c2ncnc3c2nc2n3CCCCC2)CC1,> 100 µM (inactive)
8,CC1CN(S(=O)(=O)c2ccc(NC(=O)CCCCCN3C(=O)c4ccccc4C3=O)cc2)CC(C)O1 (centres undefined),> 100 µM (inactive)
9,COc1cc(OC)c(NC(=O)C2CCN(c3ncnc4c3nc3n4CCCCC3)CC2)cc1Cl,> 100 µM (inactive)
10,Cc1ccc(NC(=O)C2CCN(c3ncnc4c3nc3n4CCCCC3)CC2)cc1C,> 100 µM (inactive)
11,Cc1cc(Cl)ccc1NC(=O)C1CCN(c2ncnc3c2nc2n3CCCCC2)CC1,> 100 µM (inactive)
12,O=C(Nc1ccc(CN2CCCCC2)cc1)C1CCN(c2ncnc3c2nc2n3CCCCC2)CC1,> 100 µM (inactive)
13,COc1cc(Cl)c(C)cc1NC(=O)C1CCN(c2ncnc3c2nc2n3CCCCC2)CC1,> 100 µM (inactive)
14,CCOc1ccc(CCNC(=O)CCCCCN2C(=O)c3ccccc3C2=O)cc1OCC,> 100 µM (inactive)
15,O=C(CCCCCN1C(=O)c2ccccc2C1=O)NCCc1ccccc1,> 100 µM (inactive)
16,Fc1ccccc1N1CCN(c2ncnc3c2nc2n3CCCC2)CC1,> 100 µM (inactive)
17,Cc1c(Cl)cccc1NC(=O)C1CCN(c2ncnc3c2nc2n3CCCCC2)CC1,> 100 µM (inactive)
18,COc1ccc(NC(=O)C2CCN(c3ncnc4c3nc3n4CCCCC3)CC2)cc1Cl,> 100 µM (inactive)
19,c1nc(N2CCC(N3CCCCC3)CC2)c2nc3n(c2n1)CCCC3,> 100 µM (inactive)

# Source: PubChem BioAssay AID602206 (Sanford-Burnham Center for Chemical Genomics, 2012)
